In PubChem BioAssay (NCI):
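How tested: cells in 96-well plates exposed to compound for 48 hours at five concentrations. GI50 marks 50% less growth. TGI: concentration producing complete growth inhibition.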

Columns and labels:
Test in all cases: inhibition of tumour cell growth, NCI panel, 48 h
UACC-62 melanoma = tested on: UACC-62 melanoma
LOX IMVI melanoma = tested on: LOX IMVI melanoma
MALME-3M melanoma = tested on: MALME-3M melanoma
BT-549 breast = tested on: BT-549 breast
A549 NSCLC = tested on: A549 NSCLC
K-562 leukemia = tested on: K-562 leukemia
NCI-H460 lung = tested on: NCI-H460 lung
SF-295 CNS = tested on: SF-295 CNS
M14 melanoma = tested on: M14 melanoma
UACC-257 melanoma = tested on: UACC-257 melanoma
OVCAR-8 ovarian = tested on: OVCAR-8 ovarian
HT29 colon = tested on: HT29 colon
A498 renal = tested on: A498 renal
UO-31 renal = tested on: UO-31 renal
U251 CNS = tested on: U251 CNS
HOP-92 NSCLC = tested on: HOP-92 NSCLC
TK-10 renal = tested on: TK-10 renal
HCT-116 colon = tested on: HCT-116 colon
DU-145 prostate = tested on: DU-145 prostate
RXF 393 renal = tested on: RXF 393 renal
SK-MEL-28 melanoma = tested on: SK-MEL-28 melanoma
KM12 colon = tested on: KM12 colon
OVCAR-5 ovarian = tested on: OVCAR-5 ovarian
SF-539 CNS = tested on: SF-539 CNS
SF-268 CNS = tested on: SF-268 CNS
786-0 renal = tested on: 786-0 renal
SNB-19 CNS = tested on: SNB-19 CNS
MOLT-4 leukemia = tested on: MOLT-4 leukemia
NCI-H522 lung = tested on: NCI-H522 lung
NCI/ADR-RES ovarian = tested on: NCI/ADR-RES ovarian
HCT-15 colon = tested on: HCT-15 colon
HCC-2998 colon = tested on: HCC-2998 colon
PC-3 prostate = tested on: PC-3 prostate
SN12C renal = tested on: SN12C renal
OVCAR-4 ovarian = tested on: OVCAR-4 ovarian
NCI-H226 lung = tested on: NCI-H226 lung
SW-620 colon = tested on: SW-620 colon
IGROV1 ovarian = tested on: IGROV1 ovarian
RPMI-8226 leukemia = tested on: RPMI-8226 leukemia
ACHN renal = tested on: ACHN renal
HS 578T breast = tested on: HS 578T breast
CAKI-1 renal = tested on: CAKI-1 renal
SK-OV-3 ovarian = tested on: SK-OV-3 ovarian
MDA-MB-435 = tested on: MDA-MB-435
EKVX NSCLC = tested on: EKVX NSCLC
T-47D breast = tested on: T-47D breast
NCI-H23 lung = tested on: NCI-H23 lung
OVCAR-3 ovarian = tested on: OVCAR-3 ovarian
HOP-62 NSCLC = tested on: HOP-62 NSCLC
SK-MEL-5 melanoma = tested on: SK-MEL-5 melanoma
MCF7 breast = tested on: MCF7 breast
COLO 205 colon = tested on: COLO 205 colon
SK-MEL-2 melanoma = tested on: SK-MEL-2 melanoma
MDA-MB-231 breast = tested on: MDA-MB-231 breast

C=C1C(=O)O[C@H]2[C@H]1CC/C(COC(=O)NCc1ccc(Cn3c(=O)sn(CCI)c3=O)cc1)=C\CC[C@@]1(C)O[C@@H]21
GI50 (UACC-62 melanoma): 1.98 µM | TGI (UACC-62 melanoma): 4.08 µM | GI50 (LOX IMVI melanoma): 1.69 µM | TGI (LOX IMVI melanoma): 3.11 µM | GI50 (MALME-3M melanoma): 1.68 µM | TGI (MALME-3M melanoma): 3.4 µM | GI50 (BT-549 breast): 2.4 µM | TGI (BT-549 breast): 6.08 µM | GI50 (A549 NSCLC): 16.6 µM | TGI (A549 NSCLC): 32.4 µM | GI50 (K-562 leukemia): 0.655 µM | TGI (K-562 leukemia): > 100 µM | GI50 (NCI-H460 lung): 6.42 µM | TGI (NCI-H460 lung): 22.7 µM | GI50 (SF-295 CNS): 13.6 µM | TGI (SF-295 CNS): 27.1 µM | GI50 (M14 melanoma): 1.82 µM | TGI (M14 melanoma): 3.59 µM | GI50 (UACC-257 melanoma): 2.24 µM | TGI (UACC-257 melanoma): 4.82 µM | GI50 (OVCAR-8 ovarian): 4.55 µM | TGI (OVCAR-8 ovarian): 18.9 µM | GI50 (HT29 colon): 2.1 µM | TGI (HT29 colon): 4.05 µM | GI50 (A498 renal): 4.44 µM | TGI (A498 renal): 20 µM | GI50 (UO-31 renal): 1.65 µM | TGI (UO-31 renal): 3.11 µM | GI50 (U251 CNS): 4.67 µM | TGI (U251 CNS): 16 µM | GI50 (HOP-92 NSCLC): 1.38 µM | TGI (HOP-92 NSCLC): 2.76 µM | GI50 (TK-10 renal): 1.91 µM | TGI (TK-10 renal): 3.68 µM | GI50 (HCT-116 colon): 1.76 µM | TGI (HCT-116 colon): 3.27 µM | GI50 (DU-145 prostate): 1.82 µM | TGI (DU-145 prostate): 3.29 µM | GI50 (RXF 393 renal): 1.61 µM | TGI (RXF 393 renal): 3.13 µM | GI50 (SK-MEL-28 melanoma): 2.06 µM | TGI (SK-MEL-28 melanoma): 3.74 µM | GI50 (KM12 colon): 8.15 µM | TGI (KM12 colon): 23.1 µM | GI50 (OVCAR-5 ovarian): 3.27 µM | TGI (OVCAR-5 ovarian): 10.1 µM | GI50 (SF-539 CNS): 1.72 µM | TGI (SF-539 CNS): 3.18 µM | GI50 (SF-268 CNS): 2.41 µM | TGI (SF-268 CNS): 6.26 µM | GI50 (786-0 renal): 1.82 µM | TGI (786-0 renal): 3.36 µM | GI50 (SNB-19 CNS): 6.88 µM | TGI (SNB-19 CNS): 19.9 µM | GI50 (MOLT-4 leukemia): 1.35 µM | TGI (MOLT-4 leukemia): 5.35 µM | GI50 (NCI-H522 lung): 1.72 µM | TGI (NCI-H522 lung): 3.36 µM | GI50 (NCI/ADR-RES ovarian): 20.3 µM | TGI (NCI/ADR-RES ovarian): 47.2 µM | GI50 (HCT-15 colon): 1.91 µM | TGI (HCT-15 colon): 4.1 µM | GI50 (HCC-2998 colon): 10.4 µM | TGI (HCC-2998 colon): 22.5 µM | GI50 (PC-3 prostate): 1.75 µM | TGI (PC-3 prostate): 3.33 µM | GI50 (SN12C renal): 2.16 µM | TGI (SN12C renal): 5.38 µM | GI50 (OVCAR-4 ovarian): 2.02 µM | TGI (OVCAR-4 ovarian): 4.19 µM | GI50 (NCI-H226 lung): 15.1 µM | TGI (NCI-H226 lung): 33.1 µM | GI50 (SW-620 colon): 1.66 µM | TGI (SW-620 colon): 3.25 µM | GI50 (IGROV1 ovarian): 2.08 µM | TGI (IGROV1 ovarian): 4.07 µM | GI50 (RPMI-8226 leukemia): 1.98 µM | TGI (RPMI-8226 leukemia): 5.11 µM | GI50 (ACHN renal): 1.89 µM | TGI (ACHN renal): 3.37 µM | GI50 (HS 578T breast): 7.29 µM | TGI (HS 578T breast): 42.4 µM | GI50 (CAKI-1 renal): 3.79 µM | TGI (CAKI-1 renal): 14 µM | GI50 (SK-OV-3 ovarian): 15.2 µM | TGI (SK-OV-3 ovarian): 28.5 µM | GI50 (MDA-MB-435): 2.45 µM | TGI (MDA-MB-435): 6.62 µM | GI50 (EKVX NSCLC): 2.11 µM | TGI (EKVX NSCLC): 5.58 µM | GI50 (T-47D breast): 1.32 µM | TGI (T-47D breast): 3.06 µM | GI50 (NCI-H23 lung): 3.46 µM | TGI (NCI-H23 lung): 13.6 µM | GI50 (OVCAR-3 ovarian): 1.64 µM | TGI (OVCAR-3 ovarian): 3.05 µM | GI50 (HOP-62 NSCLC): 11.7 µM | TGI (HOP-62 NSCLC): 24.2 µM | GI50 (SK-MEL-5 melanoma): 5.37 µM | TGI (SK-MEL-5 melanoma): 17.9 µM | GI50 (MCF7 breast): 1.71 µM | TGI (MCF7 breast): 3.64 µM | GI50 (COLO 205 colon): 1.86 µM | TGI (COLO 205 colon): 3.55 µM | GI50 (SK-MEL-2 melanoma): 11.7 µM | TGI (SK-MEL-2 melanoma): 26.2 µM | GI50 (MDA-MB-231 breast): 1.77 µM | TGI (MDA-MB-231 breast): 3.31 µM
